# Source: ChEMBL document CHEMBL4321782, “Gasdermin D (GSDMD) as a new target for the treatment of infection” (Medchemcomm, 2019)
# Residues, ends and D or L forms follow the SMILES beside them. *: point of attachment. Cbz = O=C(OCc1ccccc1)*; CH2F = FC*
# Columns and labels:
# [1] = molecular target: T1, Gasdermin-D (Homo sapiens) (UniProt P57764); assay: Inhibition of GSDMD in LPS-induced human monocyte/macrophages assessed as inhibition of pyroptosis by fluorogenic liposome leakage assay; details: concentration not given here
# T1 sequence (whole entry): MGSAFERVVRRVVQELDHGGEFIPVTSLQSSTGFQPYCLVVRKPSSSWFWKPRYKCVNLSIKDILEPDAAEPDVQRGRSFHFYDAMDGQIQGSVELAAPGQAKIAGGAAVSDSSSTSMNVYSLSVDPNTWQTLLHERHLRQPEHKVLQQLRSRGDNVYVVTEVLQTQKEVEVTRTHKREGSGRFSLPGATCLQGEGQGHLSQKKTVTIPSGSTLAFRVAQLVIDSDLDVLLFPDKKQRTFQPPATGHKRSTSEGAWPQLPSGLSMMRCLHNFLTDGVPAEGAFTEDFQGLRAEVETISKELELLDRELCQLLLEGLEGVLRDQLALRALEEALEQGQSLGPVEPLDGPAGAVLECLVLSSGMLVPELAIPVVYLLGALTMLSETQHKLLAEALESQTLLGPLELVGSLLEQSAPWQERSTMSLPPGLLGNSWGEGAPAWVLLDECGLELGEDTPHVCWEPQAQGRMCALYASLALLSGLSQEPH
# [2] = molecular target: T2, Gasdermin-D (Mus musculus) (UniProt Q9D8T2); assay: Inhibition of GSDMD in LPS-induced mouse monocyte/macrophages assessed as inhibition of pyroptosis by fluorogenic liposome leakage assay; details: concentration not given here
# T2 sequence (whole entry): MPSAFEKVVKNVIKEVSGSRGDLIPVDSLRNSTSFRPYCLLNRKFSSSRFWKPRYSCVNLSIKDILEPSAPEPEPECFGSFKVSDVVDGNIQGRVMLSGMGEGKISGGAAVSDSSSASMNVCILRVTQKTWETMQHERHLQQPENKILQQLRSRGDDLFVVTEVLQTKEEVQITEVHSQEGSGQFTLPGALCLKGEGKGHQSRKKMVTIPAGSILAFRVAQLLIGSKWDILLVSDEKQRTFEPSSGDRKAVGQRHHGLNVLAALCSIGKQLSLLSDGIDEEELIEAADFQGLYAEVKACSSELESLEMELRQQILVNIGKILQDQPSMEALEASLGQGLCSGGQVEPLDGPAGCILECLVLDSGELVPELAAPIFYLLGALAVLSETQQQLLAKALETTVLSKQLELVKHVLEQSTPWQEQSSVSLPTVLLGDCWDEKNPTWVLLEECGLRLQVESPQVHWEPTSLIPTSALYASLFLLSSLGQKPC
# [3] = molecular target: T1, Gasdermin-D (Homo sapiens); assay: Inhibition of human GSDMD expressed in HEK293 cells assessed as inhibition of GSDMD -induced lethality; assay type: cell-based
# [4] = molecular target: T2, Gasdermin-D (Mus musculus); assay: Inhibition of mouse GSDMD expressed in HEK293 cells assessed as inhibition of GSDMD -induced lethality; assay type: cell-based
inhibition [1] [%],inhibition [2] [%],Structure (SMILES),INH [3] [µM],INH [4] [µM]
> 50,> 50,CC(C)[C@H](NC(=O)OCc1ccccc1)C(=O)N[C@@H](C)C(=O)N[C@@H](CC(=O)O)C(=O)CF (Cbz-Val-Ala-Asp-CH2F),,
> 50,> 50,Cc1ccc(S(=O)(=O)/C=C/C#N)cc1,,
,,COc1ccccc1-c1cc2n(n1)Cc1ccc(NC(C)=O)cc1OC2,1,5
